Some test systems named below: HOP-62; HL-60; K562; HCT-116; SN12C; RPMI-8226; OVCAR-5; SK-OV-3; SK-MEL-28; U-251; CCRF-CEM; UO-31; NCI-H460; TK-10; KM12; MCF7; SF-268; CAKI-1; SK-MEL-2; OVCAR-3.
Assay in all cases: DTP human tumour cell line panel, 48 h

Molecules are shown by their SMILES.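 Method: 48-hour compound exposure of cells in 96-well plates, five concentrations, linear interpolation of endpoints. At the GI50, growth is halved.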 Activity calls are given as the source filed them. No stated cut-off is given here; in the data, active = GI50 up to about 1.1 µM and inactive = higher. A value given as a limit tells only on which side of the number the result lay.

As a reminder, the GI50 is the concentration that inhibits growth by half. In the case of `O=C1CC(Br)c2c(Cl)sc(Cl)c21` (centres undefined), the GI50 with HOP-62 is 6.01 µM (inactive); in the experiment on HL-60, 2.13 µM (inactive); with K562 it was 2.17 µM (inactive); with HCT-116, 4.56 µM (inactive); with SN12C it was 14.1 µM (inactive); in the experiment with RPMI-8226, 1.43 µM (inactive). For the same compound, the GI50 in the experiment with OVCAR-5 is 18 µM (inactive); with SK-OV-3 it was 16.7 µM (inactive); with SK-MEL-28, 13.6 µM (inactive); in the experiment on U-251, 3.37 µM (inactive); in the experiment on CCRF-CEM it was 0.403 µM (active); in the experiment on UO-31, 4.06 µM (inactive). In addition, the GI50 is 18.2 µM (inactive) in the experiment on NCI-H460; 2.54 µM (inactive) in the experiment on TK-10; 6.58 µM (inactive) in the experiment with KM12; 3.66 µM (inactive) with MCF7; 6.58 µM (inactive) in the experiment on SF-268; 3.1 µM (inactive) in the experiment with CAKI-1. For the same compound, the GI50 is 15.8 µM (inactive) with SK-MEL-2 and 2.38 µM (inactive) in the experiment with OVCAR-3.
Turning to `COc1ccc(CC2NCCc3cc(OC)c(OC)cc32)cc1Br` (centres undefined), the GI50 in the experiment with HOP-62 was 35.6 µM (inactive); in the experiment with HL-60, 14 µM (inactive); in the experiment with K562, 16.6 µM (inactive); with HCT-116, 14.9 µM (inactive); in the experiment with SN12C, 36.1 µM (inactive); with RPMI-8226, 18.5 µM (inactive). Also, the GI50 was 19.5 µM (inactive) in the experiment with OVCAR-5; 96.4 µM (inactive) with SK-OV-3; 16.6 µM (inactive) in the experiment with SK-MEL-28; 34.4 µM (inactive) in the experiment with U-251; 29.2 µM (inactive) with CCRF-CEM; 28.2 µM (inactive) in the experiment with UO-31. The GI50 is 21.2 µM (inactive) in the experiment on NCI-H460; 25.6 µM (inactive) in the experiment with TK-10; 21.6 µM (inactive) in the experiment on KM12; > 100 µM (inactive) with MCF7; 63.5 µM (inactive) in the experiment with SF-268; 19.7 µM (inactive) with CAKI-1. For the same compound, the values for the GI50 in the experiment on SK-MEL-2 and in the experiment with OVCAR-3 were 27.2 µM (inactive) and 76.6 µM (inactive), respectively.
As for `Nc1nc(F)nc2c1ncn2C1OC(COP(=O)(O)O)C(O)C1O` (centres undefined), the GI50 with HOP-62 was 8.53 µM (inactive); in the experiment with HL-60, 5.4 µM (inactive); in the experiment with K562, 111 µM (inactive); in the experiment with HCT-116 it was 33.1 µM (inactive); in the experiment with SN12C, 6.47 µM (inactive); with RPMI-8226 it was 80.4 µM (inactive). In addition, the GI50 in the experiment with OVCAR-5 is 41.9 µM (inactive); in the experiment on SK-OV-3 it was 26.9 µM (inactive); with SK-MEL-28, 58.1 µM (inactive); in the experiment on U-251, 231 µM (inactive); with CCRF-CEM it was 1.59 µM (inactive); with UO-31, 13.2 µM (inactive). For the same compound, the GI50 is 94 µM (inactive) in the experiment on NCI-H460; 128 µM (inactive) in the experiment on TK-10; 266 µM (inactive) in the experiment with KM12; 78.3 µM (inactive) with MCF7; 76 µM (inactive) in the experiment on SF-268; 8.17 µM (inactive) with CAKI-1. For the same compound, the GI50 in the experiment on SK-MEL-2 is 31.4 µM (inactive); with OVCAR-3 it was 119 µM (inactive).
For the compound `O=C(/C=C(\S/C=C(/c1ccccc1)N1CCn2c(C(=O)c3ccccc3)c(C(=O)c3ccccc3)c(C(=O)c3ccccc3)c21)C(=O)c1ccccc1)c1ccccc1`, the GI50 in the experiment with HOP-62, in the experiment with HL-60, in the experiment on K562, in the experiment on HCT-116, in the experiment with SN12C and in the experiment with RPMI-8226 was > 10 µM (inactive) in each case. In addition, the GI50 with OVCAR-5, in the experiment on SK-OV-3, in the experiment with SK-MEL-28, with U-251, in the experiment on CCRF-CEM and in the experiment with NCI-H460 was > 10 µM (inactive) each time. Further, the GI50 with TK-10, with KM12, in the experiment on MCF7, in the experiment on SF-268, in the experiment with CAKI-1 and in the experiment on SK-MEL-2 was > 10 µM (inactive) each time. In addition, in the experiment on OVCAR-3, the GI50 was > 10 µM (inactive).
For `CN(C)[C@H]1CC[C@H]2[C@@H]3CCC4C[C@@H](NC(=O)NC(Cc5ccccc5)c5nccs5)CC[C@]4(C)[C@H]3CC[C@]12C` (some centres undefined), the GI50 in the experiment on HOP-62 was 0.826 µM (active); with HL-60, 0.218 µM (active); in the experiment on K562 it was 0.128 µM (active); with HCT-116, 0.955 µM (active); in the experiment with SN12C, 0.348 µM (active); in the experiment on RPMI-8226, 0.792 µM (active). Also, the GI50 in the experiment with OVCAR-5 is 1.76 µM (inactive); in the experiment with SK-OV-3, 1.67 µM (inactive); in the experiment on SK-MEL-28, 1.11 µM (active); in the experiment on U-251, 0.698 µM (active); in the experiment on CCRF-CEM it was 0.29 µM (active); in the experiment with UO-31, 1.69 µM (inactive). Besides, the GI50 is 1.06 µM (active) in the experiment with NCI-H460; 2.04 µM (inactive) in the experiment on TK-10; 1.12 µM (inactive) in the experiment on KM12; 0.703 µM (active) in the experiment on MCF7; 1.66 µM (inactive) in the experiment on SF-268; 1.7 µM (inactive) in the experiment with CAKI-1. Moreover, the GI50 with SK-MEL-2 was 1.1 µM (active); with OVCAR-3, 0.853 µM (active).
In the case of `CNC1C(=O)C(C)C(O)(C(CC(C)C(O)/C=C/C=C/CNC(=O)C(C)(C)C(O)\C(C)=C/C=C\C=C\Cc2cnc(C)o2)OC)C12C(=O)OC2C.CNC1C(=O)C(C)C(O)(C(CC(C)C(O)/C=C/C=C/CNC(=O)C(C)(C)C(O)\C(C)=C/C=C\C=C\Cc2cnc(C)o2)OC)C12C(=O)OC2COC` (centres undefined), the GI50 in the experiment with HOP-62 was 8.43 µM (inactive); with HL-60, 0.635 µM (active); in the experiment with K562, 0.181 µM (active); with HCT-116 it was 15.1 µM (inactive); in the experiment on SN12C, 10.9 µM (inactive); in the experiment with RPMI-8226, 0.711 µM (active). Also, the GI50 is 20.6 µM (inactive) with OVCAR-5; 19 µM (inactive) in the experiment with SK-OV-3; 23.1 µM (inactive) in the experiment on SK-MEL-28; 1.15 µM (inactive) in the experiment with U-251; 0.614 µM (active) in the experiment on CCRF-CEM; 10.5 µM (inactive) in the experiment with UO-31. The GI50 with NCI-H460 is 15.2 µM (inactive); in the experiment with TK-10 it was 11.9 µM (inactive); with KM12 it was 7.01 µM (inactive); with MCF7, 0.354 µM (active); in the experiment with SF-268, 5.68 µM (inactive); in the experiment on CAKI-1, 31.8 µM (inactive). In addition, the GI50 in the experiment on SK-MEL-2 was 5.94 µM (inactive); in the experiment with OVCAR-3, 1.56 µM (inactive).
For the compound `CCn1cc(C(=O)O)c(=O)c2cc3c(cc21)S(=O)(=O)CC3`, the GI50 in the experiment with HOP-62, with HL-60, with K562, in the experiment with HCT-116, with SN12C and in the experiment on RPMI-8226 was > 100 µM (inactive) throughout. Also, the GI50 with OVCAR-5 is > 100 µM (inactive); in the experiment on SK-OV-3 it was > 100 µM (inactive); in the experiment with SK-MEL-28 it was > 100 µM (inactive); in the experiment with U-251, 24.2 µM (inactive); with CCRF-CEM it was > 100 µM (inactive); in the experiment with UO-31, > 100 µM (inactive). In addition, the GI50 in the experiment on NCI-H460, with TK-10, with KM12, in the experiment with MCF7, in the experiment with SF-268 and in the experiment with CAKI-1 was > 100 µM (inactive) throughout. Further, the GI50 in the experiment on SK-MEL-2 and in the experiment with OVCAR-3 was > 100 µM (inactive) in each case.
As to `Cc1ccc(NC(=S)C#N)c(C)c1`, the GI50 in the experiment with HOP-62 was > 100 µM (inactive); in the experiment with HL-60, 20.5 µM (inactive); in the experiment with K562 it was 38.4 µM (inactive); in the experiment with HCT-116, > 78.7 µM (inactive); with SN12C, > 100 µM (inactive); in the experiment on RPMI-8226 it was 21.3 µM (inactive). Moreover, the GI50 in the experiment with OVCAR-5 is > 100 µM (inactive); in the experiment on SK-OV-3, > 100 µM (inactive); in the experiment with SK-MEL-28, 65.3 µM (inactive); with U-251 it was > 86.3 µM (inactive); in the experiment on CCRF-CEM, 24.2 µM (inactive); with UO-31, 50 µM (inactive). Also, the GI50 in the experiment on NCI-H460 was > 89.7 µM (inactive); in the experiment with TK-10 it was > 100 µM (inactive); with KM12 it was > 82.8 µM (inactive); in the experiment on MCF7, > 69.5 µM (inactive); with SF-268 it was > 87.3 µM (inactive); in the experiment with CAKI-1, > 100 µM (inactive). Also, the GI50 in the experiment with SK-MEL-2 was > 100 µM (inactive); with OVCAR-3 it was 37.7 µM (inactive).
Regarding `CC(=O)c1cccc(NC(=O)C(=O)NNc2nnc(S)n2N)c1`, the GI50 was 12.1 µM (inactive) in the experiment on HOP-62; 3.18 µM (inactive) in the experiment on HL-60; 4.85 µM (inactive) in the experiment with K562; 4 µM (inactive) in the experiment with HCT-116; 7.4 µM (inactive) in the experiment on SN12C; 13.6 µM (inactive) with RPMI-8226. Besides, the GI50 in the experiment with OVCAR-5 is 17.3 µM (inactive); in the experiment with SK-OV-3, 20.5 µM (inactive); in the experiment on SK-MEL-28, 6.89 µM (inactive); in the experiment with U-251, 3.57 µM (inactive); in the experiment with CCRF-CEM, 3.48 µM (inactive); in the experiment on UO-31 it was 9.16 µM (inactive). The GI50 is 4.17 µM (inactive) in the experiment on NCI-H460; 25.9 µM (inactive) with TK-10; 11.1 µM (inactive) in the experiment on KM12; 4.27 µM (inactive) in the experiment on MCF7; 9.62 µM (inactive) in the experiment with SF-268; 17.3 µM (inactive) in the experiment with CAKI-1. The figures for the GI50 with SK-MEL-2 and in the experiment on OVCAR-3 were 3.06 µM (inactive) and 3.99 µM (inactive), respectively.
In the case of `C=C(Cl)C(=C)CCC(Cl)C(C)(C)Cl` (centres undefined), the GI50 with HOP-62, with HL-60, with K562, in the experiment with HCT-116, in the experiment with SN12C and in the experiment on RPMI-8226 was > 100 µM (inactive) in each case. For the same compound, the GI50 in the experiment with OVCAR-5, with SK-OV-3, in the experiment with SK-MEL-28, with U-251, in the experiment with CCRF-CEM and in the experiment on UO-31 was > 100 µM (inactive) throughout. Moreover, the GI50 in the experiment on NCI-H460, in the experiment on TK-10, in the experiment on KM12, in the experiment with MCF7, in the experiment with SF-268 and in the experiment with CAKI-1 was > 100 µM (inactive) throughout. For the same compound, the GI50 with SK-MEL-2 and with OVCAR-3 was > 100 µM (inactive) in each case.

The values above are taken from ChEMBL document CHEMBL1201862, “PubChem BioAssay data set” (2004).
